The text below walks through data of patent US8067445B2, “N,N-disubstituted aminoalkylbiphenyl antagonists of prostaglandin D2 receptors” (Panmira Pharmaceuticals, LLC, priority 2008, dated 2011).

Experiment [1] concerns the target T1, human DP2 receptor (Homo sapiens, UniProt Q9Y5Y4).
T1 construct: expressed in transfected cells
T1 sequence (Q9Y5Y4 1-395): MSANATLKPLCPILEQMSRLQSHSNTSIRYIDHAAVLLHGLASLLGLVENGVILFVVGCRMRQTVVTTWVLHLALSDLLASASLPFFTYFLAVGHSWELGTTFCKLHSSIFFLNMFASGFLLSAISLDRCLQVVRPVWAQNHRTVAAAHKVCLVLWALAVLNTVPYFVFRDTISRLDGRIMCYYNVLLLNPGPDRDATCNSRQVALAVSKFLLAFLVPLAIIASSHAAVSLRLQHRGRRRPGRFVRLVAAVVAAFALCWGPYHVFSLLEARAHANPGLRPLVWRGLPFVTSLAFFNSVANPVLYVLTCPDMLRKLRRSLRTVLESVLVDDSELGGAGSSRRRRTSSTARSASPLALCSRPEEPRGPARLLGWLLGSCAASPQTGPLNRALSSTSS
Put plainly: DP2/CRTH2 radioligand binding assay ([3H]PGD2). The note with it: [3H]PGD2 binding, membranes of HEK293 cells expressing human DP2; read-out: hDP2. A digest of the protocol: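 Membranes from HEK293 cells stably expressing recombinant human DP2 incubated 60 min at room temperature with 1 nM [3H]PGD2 and compound in pH 7.4 Hepes/MnCl2/EDTA buffer, ± 0.2% human serum albumin. Bound radioactivity measured after filtration; non-specific binding defined with 10 μM PGD2. IC50 from titration curves.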

Experiment [2] concerns the target T2, human DP1 receptor (Homo sapiens, UniProt Q13258).
T2 construct: tissue Biological Specialty Corporation; host or cells: human platelet membranes
T2 sequence (Q13258 1-359): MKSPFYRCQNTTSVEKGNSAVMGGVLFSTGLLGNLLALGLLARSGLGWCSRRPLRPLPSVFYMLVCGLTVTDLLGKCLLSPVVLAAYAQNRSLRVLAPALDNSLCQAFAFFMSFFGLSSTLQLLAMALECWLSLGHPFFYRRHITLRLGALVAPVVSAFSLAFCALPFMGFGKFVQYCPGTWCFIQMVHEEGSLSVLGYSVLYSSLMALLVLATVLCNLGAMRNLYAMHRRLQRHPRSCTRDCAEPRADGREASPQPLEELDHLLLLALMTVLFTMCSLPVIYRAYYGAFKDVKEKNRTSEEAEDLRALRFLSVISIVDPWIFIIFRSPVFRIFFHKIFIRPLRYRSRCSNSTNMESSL
Put plainly: DP1 radioligand binding assay ([3H]BWA868C, platelet membranes). The conditions noted are these: [3H]BWA868C binding, human platelet membranes; read-out: hDP1. A digest of the protocol:
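Human platelet membranes (20 μg protein/well) incubated 60 min at room temperature with 2 nM [3H]BWA868C and compound in 50 mM Hepes, 10 mM MnCl2, 1 mM EDTA, pH 7.4, ± 0.2% human serum albumin. Bound radioactivity measured after filtration; nonspecific binding defined with 10 μM BWA868C; IC50 from titration curves.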

Experiment [3] concerns the target T3, recombinant human CRTH2 receptor (Homo sapiens, UniProt Q9Y5Y4).
T3 construct: expressed in transfected cells
T3 sequence (Q9Y5Y4 1-395): T1 sequence (Q9Y5Y4 1-395)
Put plainly: GTPγS binding assay. The format is biochemical. The note with it: +HSA (0.2% human serum albumin), 80 nM PGD2, CHO cell membranes; read-out: hDP2 GTPγS μM (+HSA). As to the method:
The ability of a compound to inhibit binding of GTP to DP2 is assessed via a membrane GTPγS assay. CHO cells stably expressing the recombinant human CRTH2 receptor are resuspended in 10 mM Hepes, 7.4 containing 1 mM DTT, lysed and centrifuged at 75,000×g to pellet the membranes. The membranes are resuspended in 10 mM Hepes, 7.4 containing 1 mM DTT and 10% glycerol. […] The reactions are terminated by rapid filtration through Whatman GF/B glass fibre filter plates. The filter plates are washed 3 times with 1 ml cold Assay Buffer and dried. Scintillant is then added to the plates and the radioactivity retained on the filters is determined on a Packard TopCount (Perkin Elmer). Specific binding is determined as total radioactive binding minus non-specific binding in the absence of the ligand (80 nM PGD2). IC50s were determined using Graphpad prism analysis of drug titration curves.

Turning to `COc1ccc(CC(=O)O)cc1-c1ccc(C(F)(F)F)cc1CN(CC(C)(C)C)C(C)=O` [Compound 1-3, (2′-{[Acetyl-(2,2-dimethyl-propyl)-amino]-methyl}-6-methoxy-4′-trifluoromethyl-biphenyl-3-yl)-acetic acid], the IC50 in experiment [1] is below 300 nM; in experiment [2] it was 1000 to 30000 nM; in experiment [3], below 0.3 µM.

Regarding `COc1ccc(CC(=O)O)cc1-c1ccc(C(F)(F)F)cc1CN(CCO)C(C)=O` [Compound 1-5, (2′-{[Acetyl-(2-hydroxy-ethyl)-amino]-methyl}-6-methoxy-4′-trifluoromethyl-biphenyl-3-yl)-acetic acid], the IC50 in experiment [1] was below 300 nM; in experiment [2], 1000 to 30000 nM; in experiment [3] it was 0.3 to 1 µM.

As to `COCCN(Cc1cc(C(F)(F)F)ccc1-c1cc(CC(=O)O)ccc1OC)C(C)=O` [Compound 1-6, (2′-{[Acetyl-(2-methoxy-ethyl)-amino]-methyl}-6-methoxy-4′-trifluoromethyl-biphenyl-3-yl)-acetic acid], the IC50 in experiment [1] is below 300 nM; in experiment [2] it was 1000 to 30000 nM; in experiment [3], below 0.3 µM.

Consider `COc1ccc(CC(=O)O)cc1-c1ccc(C(F)(F)F)cc1CN(CCN(C)C)C(C)=O` [Compound 1-7, (2′-{[Acetyl-(2-dimethylamino-ethyl)-amino]-methyl}-6-methoxy-4′-trifluoromethyl-biphenyl-3-yl)-acetic acid], for which the results for the IC50 in experiment [1], in experiment [2] and in experiment [3] were 300 to 1000 nM, 1000 to 30000 nM and 0.3 to 1 µM, respectively.

Consider `COc1ccc(CC(=O)O)cc1-c1ccc(C(F)(F)F)cc1CN(CC(=O)O)C(C)=O` [Compound 1-8, {2′-[(Acetyl-carboxymethyl-amino)-methyl]-6-methoxy-4′-trifluoromethyl-biphenyl-3-yl}-acetic acid], for which the IC50 in experiment [1] was 1000 to 30000 nM; in experiment [2] it was 1000 to 30000 nM; in experiment [3], 1 to 30 µM.

Turning to `COc1ccc(CC(=O)O)cc1-c1ccc(C(F)(F)F)cc1CN(CC(N)=O)C(C)=O` [Compound 1-9, {2′-[(Acetyl-carbamoylmethyl-amino)-methyl]-6-methoxy-4′-trifluoromethyl-biphenyl-3-yl}-acetic acid], the IC50 in experiment [1] was 300 to 1000 nM; in experiment [2], 1000 to 30000 nM; in experiment [3], 0.3 to 1 µM.

For the compound `COc1ccc(CC(=O)O)cc1-c1ccc(C(F)(F)F)cc1CN(C(C)=O)[C@@H]1CCc2ccccc21` [Compound 1-13, {2′-[((R)-Acetyl-indan-1-yl-amino)-methyl]-6-methoxy-4′-trifluoromethyl-biphenyl-3-yl}-acetic acid], the IC50 in experiment [1] is 300 to 1000 nM; in experiment [2] it was below 300 nM; in experiment [3], 0.3 to 1 µM.

In the case of `COc1ccc(CC(=O)O)cc1-c1ccc(C(F)(F)F)cc1CN(C(C)=O)[C@H]1CCc2ccccc21` [Compound 1-14, {2′-[((S)-Acetyl-indan-1-yl-amino)-methyl]-6-methoxy-4′-trifluoromethyl-biphenyl-3-yl}-acetic acid], the IC50 is below 300 nM in experiment [1], 1000 to 30000 nM in experiment [2] and below 0.3 µM in experiment [3].

Take `COc1ccc(CC(=O)O)cc1-c1ccc(C(F)(F)F)cc1CN(C(C)=O)C1Cc2ccccc2C1` [Compound 1-17, {2′-[(Acetyl-indan-2-yl-amino)-methyl]-6-methoxy-4′-trifluoromethyl-biphenyl-3-yl}-acetic acid]: the IC50 is below 300 nM in experiment [1], 1000 to 30000 nM in experiment [2] and below 0.3 µM in experiment [3].

`COc1ccc(CC(=O)O)cc1-c1ccc(C(F)(F)F)cc1CN(C(C)=O)c1ccccc1` [Compound 1-18, {2′-[(Acetyl-phenyl-amino)-methyl]-6-methoxy-4′-trifluoromethyl-biphenyl-3-yl}-acetic acid]: the IC50 in experiment [1] was in the range of 300 to 1000 nM; in experiment [2] it was 1000 to 30000 nM; in experiment [3], 0.3 to 1 µM.

`COc1ccc(CC(=O)O)cc1-c1ccc(C(F)(F)F)cc1CN(Cc1ccccc1)C(C)=O` [Compound 1-19, {2′-[(Acetyl-benzyl-amino)-methyl]-6-methoxy-4′-trifluoromethyl-biphenyl-3-yl}-acetic acid]: the IC50 in experiment [1] is below 300 nM; in experiment [2] it was 1000 to 30000 nM; in experiment [3], below 0.3 µM.

`COc1ccc(CC(=O)O)cc1-c1ccc(C(F)(F)F)cc1CN(CCc1ccccc1)C(C)=O` [Compound 1-20, {2′-[(Acetyl-phenethyl-amino)-methyl]-6-methoxy-4′-trifluoromethyl-biphenyl-3-yl}-acetic acid]: the IC50 in experiment [1] is below 300 nM; in experiment [2], 1000 to 30000 nM; in experiment [3], below 0.3 µM.

Take `CCN(Cc1cc(C(F)(F)F)ccc1-c1cc(C(C)C(=O)O)ccc1OC)C(C)=O` (stereo not shown) [Compound 1-21, 2-{2′-[(Acetyl-ethyl-amino)-methyl]-6-methoxy-4′-trifluoromethyl-biphenyl-3-yl}-propionic acid]: the IC50 was below 300 nM in experiment [1], 1000 to 30000 nM in experiment [2] and below 0.3 µM in experiment [3].

For the compound `CCN(Cc1cc(C(F)(F)F)ccc1-c1cc(C(C)C(=O)O)ccc1OC)C(=O)NCc1ccccc1` (stereo not shown) [Compound 1-222, 2-[2′-(3-Benzyl-1-ethyl-ureidomethyl)-6-methoxy-4′-trifluoromethyl-biphenyl-3-yl]-propionic acid], the IC50 was below 300 nM in experiment [1] and below 0.3 µM in experiment [3].

On to `CCN(Cc1cc(C(F)(F)F)ccc1-c1cc([C@@H](C)C(=O)O)ccc1OC)C(=O)C1CC1` [Compound 1-224, (R)-2-{2′-[(Cyclopropanecarbonyl-ethyl-amino)-methyl]-6-methoxy-4′-trifluoromethyl-biphenyl-3-yl}-propionic acid], for which the IC50 in experiment [1] is below 300 nM; in experiment [3], below 0.3 µM.

Consider `CCOc1ccc(-c2ccc(-c3cc(CC(=O)O)ccc3OC)c(CN(CC)C(=O)NCc3ccccc3)c2)cn1` [Compound 1-228, [2′-(3-Benzyl-1-ethyl-ureidomethyl)-4′-(6-ethoxy-pyridin-3-yl)-6-methoxy-biphenyl-3-yl]-acetic acid], for which the IC50 in experiment [1] is below 300 nM; in experiment [3] it was below 0.3 µM.

In the case of `CCN(Cc1cc(-c2cnn(C)c2)ccc1-c1cc(CC(=O)O)ccc1OC)C(=O)C1CC1` [Compound 1-233, [2′-[(Cyclopropanecarbonyl-ethyl-amino)-methyl]-6-methoxy-4′-(1-methyl-1H-pyrazol-4-yl)-biphenyl-3-yl]-acetic acid], the results for the IC50 in experiment [1] and in experiment [3] were below 300 nM and below 0.3 µM, respectively.

In the case of `CCN(Cc1cc(-c2cnn(C)c2)ccc1-c1cc(CC(=O)O)ccc1OC)C(=O)NCc1ccccc1` [Compound 1-234, [2′-(3-Benzyl-1-ethyl-ureidomethyl)-6-methoxy-4′-(1-methyl-1H-pyrazol-4-yl)-biphenyl-3-yl]-acetic acid], the figures for the IC50 in experiment [1] and in experiment [3] were below 300 nM and below 0.3 µM, respectively.

Turning to `CCN(Cc1cc(C(F)(F)F)ccc1-c1cc([C@@H](C)C(=O)O)cc(C(F)(F)F)c1)C(=O)C1CC1` [Compound 1-237, (R)-2-{2′-[(Cyclopropanecarbonyl-ethyl-amino)-methyl]-5,4′-bis-trifluoromethyl-biphenyl-3-yl}-propionic acid], the IC50 was below 300 nM in experiment [1] and below 0.3 µM in experiment [3].

As for `CCN(Cc1cc(C(F)(F)F)ccc1-c1cc(Cc2nn[nH]n2)ccc1OC)C(=O)C1CC1` [Compound 2-7, Cyclopropanecarboxylic acid ethyl-[2′-methoxy-5′-(2H-tetrazol-5-ylmethyl)-4-trifluoromethyl-biphenyl-2-ylmethyl]-amide], the IC50 in experiment [1] and in experiment [2] was 1000 to 30000 nM in each case.

For `CCN(Cc1cc(C(F)(F)F)ccc1-c1cc(CC(N)=O)ccc1OC)C(=O)C1CC1` [Compound 2-8, Cyclopropanecarboxylic acid (5′-carbamoylmethyl-2′-methoxy-4-trifluoromethyl-biphenyl-2-ylmethyl)-ethyl-amide], the IC50 in experiment [1] and in experiment [2] was 1000 to 30000 nM in each case.
